According to US12077503B2, “Substituted cyclic amides and their use as herbicides” (FMC CORPORATION, priority 2015, dated 2024):

Experiments:
Assay type in all cases: in vivo
[1] = system: ryegrass, Italian (Italian ryegrass, Lolium multiflorum); assay: Test A postemergence; conditions: Lolium multiflorum, post-emergence, 240 h, Postemergence
Procedure, shortened: (§1)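 Treatment is preemergence as a directed soil spray after planting, or postemergence at the one- to two-leaf stage, with test chemical in a non-phytotoxic solvent mixture plus surfactant. Plants stay in the greenhouse about 10 d before visual injury scoring on a 0 to 100 scale versus untreated controls.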

[2] = system: giant foxtail (Setaria faberii); assay: Test A postemergence; conditions: Setaria faberi, post-emergence, 240 h, Postemergence
Procedure, shortened: as §1

[3] = system: ragweed (common ragweed, Ambrosia elatior); assay: Test A postemergence; conditions: Ambrosia artemisiifolia, post-emergence, 240 h, Postemergence
Procedure, shortened: as §1

[4] = system: pigweed (Amaranthus retroflexus); assay: Test A postemergence; conditions: Amaranthus retroflexus, post-emergence, 240 h, Postemergence
Procedure, shortened: as §1

[5] = system: wheat (Triticum aestivum); assay: Test A postemergence; conditions: Triticum aestivum, post-emergence, 240 h, Postemergence
Procedure, shortened: as §1

[6] = system: Galium (catchweed bedstraw, Galium aparine); assay: Test A postemergence; conditions: Galium, post-emergence, 240 h, Postemergence
Procedure, shortened: as §1

[7] = system: barnyardgrass (Echinochloa crus-galli); assay: Test A postemergence; conditions: Echinochloa crus-galli, post-emergence, 240 h, Postemergence
Procedure, shortened: as §1

[8] = system: blackgrass (Alopecurus myosuroides); assay: Test A postemergence; conditions: Alopecurus myosuroides, post-emergence, 240 h, Postemergence
Procedure, shortened: as §1

corn (Zea mays) = assay: Test A postemergence; conditions: Zea mays, post-emergence, 240 h, Postemergence
Procedure, shortened: as §1

Kochia (Kochia scoparia) = assay: Test A preemergence; conditions: Bassia scoparia, pre-emergence, 240 h, preemergence, 0 to 100 scale where 0 is no effect and 100 is complete control, read-out: Kochia plant response rating
Procedure, shortened: as §1

[9] = system: ryegrass, Italian (Italian ryegrass, Lolium multiflorum); assay: Test A preemergence; conditions: Lolium multiflorum, pre-emergence, 240 h, preemergence, 0 to 100 scale where 0 is no effect and 100 is complete control, read-out: Ryegrass, Italian plant response rating
Procedure, shortened: as §1

[10] = system: giant foxtail (Setaria faberii); assay: Test A preemergence; conditions: Setaria faberi, pre-emergence, 240 h, preemergence, 0 to 100 scale where 0 is no effect and 100 is complete control, read-out: Foxtail, Giant plant response rating
Procedure, shortened: as §1

[11] = system: ragweed (common ragweed, Ambrosia elatior); assay: Test A preemergence; conditions: Ambrosia artemisiifolia, pre-emergence, 240 h, preemergence, 0 to 100 scale where 0 is no effect and 100 is complete control, read-out: Ragweed plant response rating
Procedure, shortened: as §1

[12] = system: pigweed (Amaranthus retroflexus); assay: Test A preemergence; conditions: Amaranthus retroflexus, pre-emergence, 240 h, preemergence, 0 to 100 scale where 0 is no effect and 100 is complete control, read-out: Pigweed plant response rating
[13] = 125 g ai/ha, visual injury rating, approximately 10 d

CN1CC(c2cccc(OCC=C(Cl)Cl)c2)C(C(=O)Nc2cccc(F)c2F)C1=O (stereo not shown) [Compound 1303]
pest or weed control at 125 g/ha ([1]; 125 g ai/ha, visual rating about 10 d after treatment, read-out: Ryegrass, Italian plant response rating (0 to 100 scale)): 0%
pest or weed control at 500 g/ha ([1]; 500 g ai/ha, visual injury, 0 to 100 scale (0 no effect, 100 complete control), approx. 10 d, read-out: Plant response rating, Ryegrass, Italian): 0%
pest or weed control at 125 g/ha ([2]; 125 g ai/ha, visual rating about 10 d after treatment, read-out: Foxtail, Giant plant response rating (0 to 100 scale)): 40%
pest or weed control at 500 g/ha ([2]; 500 g ai/ha, visual injury, 0 to 100 scale (0 no effect, 100 complete control), approx. 10 d, read-out: Plant response rating, Foxtail, Giant): 60%
pest or weed control at 125 g/ha ([3]; 125 g ai/ha, visual rating about 10 d after treatment, read-out: Ragweed plant response rating (0 to 100 scale)): 0%
pest or weed control at 500 g/ha ([3]; 500 g ai/ha, visual injury, 0 to 100 scale (0 no effect, 100 complete control), approx. 10 d, read-out: Plant response rating, Ragweed): 0%
pest or weed control at 125 g/ha ([4]; 125 g ai/ha, visual rating about 10 d after treatment, read-out: Pigweed plant response rating (0 to 100 scale)): 0%
pest or weed control at 500 g/ha ([4]; 500 g ai/ha, visual injury, 0 to 100 scale (0 no effect, 100 complete control), approx. 10 d, read-out: Plant response rating, Pigweed): 0%
plant injury at 125 g/ha ([5]; 125 g ai/ha, visual rating about 10 d after treatment, read-out: Wheat plant response rating (0 to 100 scale)): 0%
plant injury at 500 g/ha ([5]; 500 g ai/ha, visual injury, 0 to 100 scale (0 no effect, 100 complete control), approx. 10 d, read-out: Plant response rating, Wheat): 0%
pest or weed control at 125 g/ha ([6]; 125 g ai/ha, visual rating about 10 d after treatment, read-out: Galium plant response rating (0 to 100 scale)): 0%
pest or weed control at 500 g/ha ([6]; 500 g ai/ha, visual injury, 0 to 100 scale (0 no effect, 100 complete control), approx. 10 d, read-out: Plant response rating, Galium): 0%
pest or weed control at 125 g/ha ([7]; 125 g ai/ha, visual rating about 10 d after treatment, read-out: Barnyardgrass plant response rating (0 to 100 scale, 0 no effect, 100 complete control)): 0%
pest or weed control at 500 g/ha ([7]; 500 g ai/ha, visual injury, 0 to 100 scale (0 no effect, 100 complete control), approx. 10 d, read-out: Plant response rating, Barnyardgrass): 30%
pest or weed control at 125 g/ha ([8]; 125 g ai/ha, visual rating about 10 d after treatment, read-out: Blackgrass plant response rating (0 to 100 scale)): 0%
pest or weed control at 500 g/ha ([8]; 500 g ai/ha, visual injury, 0 to 100 scale (0 no effect, 100 complete control), approx. 10 d, read-out: Plant response rating, Blackgrass): 0%
plant injury at 125 g/ha (corn (Zea mays); 125 g ai/ha, visual rating about 10 d after treatment, read-out: Corn plant response rating (0 to 100 scale)): 0%
Corn plant response rating (crop injury, 0 = no effect, 100 = complete kill) at 500 g/ha (corn (Zea mays); 500 g ai/ha, visual injury, 0 to 100 scale (0 no effect, 100 complete control), approx. 10 d): 0%
pest or weed control at 125 g/ha (Kochia (Kochia scoparia); [13]): 0%
pest or weed control at 500 g/ha (Kochia (Kochia scoparia); 500 g ai/ha): 0%
pest or weed control at 125 g/ha [9, 13]: 0%
pest or weed control at 500 g/ha ([9]; 500 g ai/ha): 0%
pest or weed control at 125 g/ha [10, 13]: 40%
pest or weed control at 500 g/ha ([10]; 500 g ai/ha): 90%
pest or weed control at 125 g/ha [11, 13]: 0%
pest or weed control at 500 g/ha ([11]; 500 g ai/ha): 0%
pest or weed control at 125 g/ha [12, 13]: 0%
pest or weed control at 500 g/ha ([12]; 500 g ai/ha): 30%
